Measured values as given in US20110282056A1, “PROTEIN KINASE INHIBITORS AND USE THEREOF” (priority 2008, published 2011).

Key:
Assay type in all cases: biochemical
[1] = target: T1, VEGFR3 (Homo sapiens, UniProt P35916); assay: VEGFR3 enzyme activity assay (Caliper LC3000 mobility shift); details: 400 uM ATP (Km), 0.4 nM VEGFR3, 90 minutes at RT
T1 construct: purchased Millpore Corp. (Millipore) 14-681
Experimental: (§1) Enzyme activity for VEGFR3, VEGFR2 and Flt3 were measured on the Caliper Life Sciences LC3000 (Hopkinton, Mass.). The system utilizes the principle of electroosmotic flow to separate and quantify the amount of phosphorylated-Fluorescein-labelled-peptide (product) from unphosphorylated-Fluorescein-labelled peptide (substrate). The amount of product and substrate are determined by measuring the peak heights from the electropherogram. The enzyme activity is then quantified by dividing the amount of product by the sum of the product and substrate. The inhibitory activity of a sample is measured by comparing the enzyme activity in the presence of sample versus the enzyme activity in the presence of dimethylsufoxide (DMSO). Specific assay conditions for each enzyme are listed below:
(§2) VEGFR3 assay: The peptide substrate at 1 uM (FITC-KKKKEEIYFFF-CONH2; synthesized at Tufts University, Boston, Mass.) was incubated with 400 uM of ATP, corresponding to the Michaelis-Menten (Km) constant of the enzyme/substrate reaction, and 0.4 nM of VEGFR3 (Millpore Corp., Cat. No. 14-681) for 90 minutes at RT. After 90 minutes, the reaction was stopped by the addition of 10 mM EDTA. The substrate and product were then separated on the LC3000.

[2] = target: T2, VEGFR2 (Homo sapiens, UniProt P35968); assay: VEGFR2 enzyme activity assay (Caliper LC3000 mobility shift); details: 160 uM ATP (Km), 1 nM VEGFR2, 90 minutes at RT
T2 construct: purchased BPS Bioscience; San Diego, Calif; 40301
T2 sequence (P35968 20-1356): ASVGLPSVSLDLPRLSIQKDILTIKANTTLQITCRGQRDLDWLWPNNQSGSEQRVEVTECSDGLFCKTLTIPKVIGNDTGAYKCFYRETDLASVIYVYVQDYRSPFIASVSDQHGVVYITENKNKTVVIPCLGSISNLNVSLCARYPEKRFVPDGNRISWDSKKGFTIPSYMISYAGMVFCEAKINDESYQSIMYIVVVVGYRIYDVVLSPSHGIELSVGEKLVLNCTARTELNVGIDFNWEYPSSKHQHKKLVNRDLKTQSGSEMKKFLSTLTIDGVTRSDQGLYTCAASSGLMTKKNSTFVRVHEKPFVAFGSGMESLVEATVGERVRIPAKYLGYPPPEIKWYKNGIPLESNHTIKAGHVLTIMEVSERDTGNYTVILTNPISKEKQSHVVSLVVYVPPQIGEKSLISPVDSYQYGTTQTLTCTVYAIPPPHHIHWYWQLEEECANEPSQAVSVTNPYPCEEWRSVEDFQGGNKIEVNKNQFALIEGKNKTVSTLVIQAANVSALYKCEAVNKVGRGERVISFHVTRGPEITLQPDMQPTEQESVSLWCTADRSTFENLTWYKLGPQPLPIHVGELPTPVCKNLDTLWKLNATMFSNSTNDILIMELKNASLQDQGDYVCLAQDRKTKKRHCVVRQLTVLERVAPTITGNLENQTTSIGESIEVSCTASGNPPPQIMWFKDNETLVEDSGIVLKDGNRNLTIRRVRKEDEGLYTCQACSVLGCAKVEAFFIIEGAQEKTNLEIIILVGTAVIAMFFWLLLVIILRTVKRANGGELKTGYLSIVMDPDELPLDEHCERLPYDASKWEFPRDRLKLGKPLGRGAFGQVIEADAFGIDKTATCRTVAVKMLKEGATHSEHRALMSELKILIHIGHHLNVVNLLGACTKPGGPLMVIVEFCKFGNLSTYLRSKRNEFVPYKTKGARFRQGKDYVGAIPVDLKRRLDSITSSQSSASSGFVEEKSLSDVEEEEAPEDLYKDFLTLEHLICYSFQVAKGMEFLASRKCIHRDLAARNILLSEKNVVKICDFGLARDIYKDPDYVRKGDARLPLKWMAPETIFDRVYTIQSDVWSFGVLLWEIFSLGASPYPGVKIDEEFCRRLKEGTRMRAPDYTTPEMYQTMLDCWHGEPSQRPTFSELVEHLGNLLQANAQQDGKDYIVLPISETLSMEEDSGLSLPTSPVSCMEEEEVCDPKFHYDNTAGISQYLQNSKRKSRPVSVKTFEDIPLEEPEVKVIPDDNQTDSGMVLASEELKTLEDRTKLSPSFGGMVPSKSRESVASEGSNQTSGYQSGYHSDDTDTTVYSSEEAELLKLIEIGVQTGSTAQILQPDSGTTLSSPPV
Experimental: as §1
as §2, with “VEGFR2” for “VEGFR3”, “(5-FL-EEPLYWSFPAKKK-CONH2;” for “(FITC-KKKKEEIYFFF-CONH2;”, “160” for “400”, “1” for “0.4”, “VEGFR2 (BPS Bioscience; San Diego, Calif.;” for “VEGFR3 (Millpore Corp.,”, “40301)” for “14-681)”

[3] = target: T3, Flt3 (Homo sapiens, UniProt P36888); assay: Flt3 enzyme activity assay (Caliper LC3000 mobility shift); details: 350 uM ATP (Km), 3 nM Flt3, 90 minutes at RT
T3 construct: purchased BPS Bioscience; San Diego, Calif; 40225
T3 sequence (P36888 27-993): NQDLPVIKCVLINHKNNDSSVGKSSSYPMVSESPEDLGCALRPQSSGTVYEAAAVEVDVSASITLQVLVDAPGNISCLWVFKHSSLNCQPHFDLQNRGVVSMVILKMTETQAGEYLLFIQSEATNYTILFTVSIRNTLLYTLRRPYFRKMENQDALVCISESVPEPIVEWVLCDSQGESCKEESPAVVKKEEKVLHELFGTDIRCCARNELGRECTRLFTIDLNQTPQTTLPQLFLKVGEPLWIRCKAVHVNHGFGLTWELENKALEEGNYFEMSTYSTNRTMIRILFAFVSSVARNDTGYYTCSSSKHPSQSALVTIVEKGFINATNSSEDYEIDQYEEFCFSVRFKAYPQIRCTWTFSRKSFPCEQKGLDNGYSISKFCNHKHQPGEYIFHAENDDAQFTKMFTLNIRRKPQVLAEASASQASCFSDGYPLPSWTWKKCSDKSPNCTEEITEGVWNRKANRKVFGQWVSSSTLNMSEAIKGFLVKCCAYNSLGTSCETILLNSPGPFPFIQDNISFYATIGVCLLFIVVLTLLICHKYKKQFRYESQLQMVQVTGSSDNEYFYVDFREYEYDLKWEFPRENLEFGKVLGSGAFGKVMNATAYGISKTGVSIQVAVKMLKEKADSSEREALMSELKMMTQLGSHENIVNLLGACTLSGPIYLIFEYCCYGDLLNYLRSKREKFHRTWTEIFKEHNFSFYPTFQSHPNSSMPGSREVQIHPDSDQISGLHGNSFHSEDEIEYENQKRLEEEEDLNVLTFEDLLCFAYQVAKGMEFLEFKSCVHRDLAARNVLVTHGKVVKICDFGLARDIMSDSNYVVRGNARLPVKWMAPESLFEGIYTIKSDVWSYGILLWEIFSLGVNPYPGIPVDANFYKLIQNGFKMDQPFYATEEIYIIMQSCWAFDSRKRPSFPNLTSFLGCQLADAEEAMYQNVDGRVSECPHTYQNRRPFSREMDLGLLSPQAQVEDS
Experimental: as §1
as §2, with “Flt3” for “VEGFR3”, “(FITC-AHA-UEAIYAAPFAKKK-CONH2;” for “(FITC-KKKKEEIYFFF-CONH2;”, “350” for “400”, “3” for “0.4”, “Flt3 (BPS Bioscience; San Diego, Calif.;” for “VEGFR3 (Millpore Corp.,”, “40225)” for “14-681)”

T1 sequence (P35916 25-1363): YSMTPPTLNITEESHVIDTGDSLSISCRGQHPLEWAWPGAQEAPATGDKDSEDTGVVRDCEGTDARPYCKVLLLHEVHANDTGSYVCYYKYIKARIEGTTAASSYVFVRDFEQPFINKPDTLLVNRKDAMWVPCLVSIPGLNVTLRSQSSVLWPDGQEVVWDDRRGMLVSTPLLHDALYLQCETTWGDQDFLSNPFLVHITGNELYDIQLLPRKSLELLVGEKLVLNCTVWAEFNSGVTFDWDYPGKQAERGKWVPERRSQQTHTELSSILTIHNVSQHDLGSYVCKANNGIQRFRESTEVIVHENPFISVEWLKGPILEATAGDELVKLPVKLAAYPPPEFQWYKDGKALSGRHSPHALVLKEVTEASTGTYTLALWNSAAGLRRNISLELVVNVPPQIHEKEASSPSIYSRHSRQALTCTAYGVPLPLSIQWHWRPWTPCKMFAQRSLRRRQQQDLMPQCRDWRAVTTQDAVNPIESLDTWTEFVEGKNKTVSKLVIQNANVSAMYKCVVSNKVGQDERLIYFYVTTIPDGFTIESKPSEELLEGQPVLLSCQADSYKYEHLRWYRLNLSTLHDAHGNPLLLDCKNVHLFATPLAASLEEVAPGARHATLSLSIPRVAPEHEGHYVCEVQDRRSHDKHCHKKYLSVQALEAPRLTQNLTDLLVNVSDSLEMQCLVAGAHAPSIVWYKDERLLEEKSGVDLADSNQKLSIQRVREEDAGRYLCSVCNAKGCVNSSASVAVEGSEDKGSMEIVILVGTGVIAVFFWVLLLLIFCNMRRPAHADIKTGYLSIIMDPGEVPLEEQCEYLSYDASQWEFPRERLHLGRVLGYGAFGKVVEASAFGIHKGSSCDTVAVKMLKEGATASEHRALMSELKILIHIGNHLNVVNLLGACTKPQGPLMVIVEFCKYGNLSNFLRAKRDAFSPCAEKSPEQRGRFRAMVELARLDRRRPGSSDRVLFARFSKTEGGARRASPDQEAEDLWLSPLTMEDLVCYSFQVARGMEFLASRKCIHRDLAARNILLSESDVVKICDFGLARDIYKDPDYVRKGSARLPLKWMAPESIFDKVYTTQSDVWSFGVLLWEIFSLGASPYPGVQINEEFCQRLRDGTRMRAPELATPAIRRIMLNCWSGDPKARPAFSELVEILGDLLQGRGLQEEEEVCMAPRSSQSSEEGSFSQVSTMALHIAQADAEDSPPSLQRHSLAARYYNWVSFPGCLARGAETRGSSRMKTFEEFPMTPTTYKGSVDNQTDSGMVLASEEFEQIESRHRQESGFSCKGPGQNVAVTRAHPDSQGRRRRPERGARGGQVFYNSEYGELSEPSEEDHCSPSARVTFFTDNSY

| SMILES | IC50 [1] | IC50 [2] | IC50 [3] |
| --- | --- | --- | --- |
| Nc1cccc(C#Cc2ccnc3[nH]ccc23)c1 [compound 99] | > 1000 nM | > 1000 nM | > 1000 nM |
| CCNC(=O)/C=C/c1cccc(C#Cc2ccnc3[nH]ccc23)c1 [compound 54] | 100 to 1000 nM | > 1000 nM | > 1000 nM |
| FC(F)Oc1ccc(C#Cc2ccnc3[nH]ccc23)cc1 [compound 107] | > 1000 nM | > 1000 nM | > 1000 nM |
| C(#Cc1ccnc2[nH]ccc12)c1cccc2[nH]ccc12 [compound 60] | 100 to 1000 nM | > 1000 nM | > 1000 nM |
| COc1ccc(C#Cc2ccnc(NC(=O)OC(C)(C)C)c2)cc1 [compound 132] | > 1000 nM | > 1000 nM | > 1000 nM |
| COc1ccccc1C#Cc1ccnc2[nH]ccc12 [compound 52] | 100 to 1000 nM | > 1000 nM | > 1000 nM |
| FC(F)(F)c1ccc(C#Cc2ccnc3[nH]ccc23)cc1 [compound 135] | > 1000 nM | > 1000 nM | > 1000 nM |
| C(#Cc1ccnc2[nH]ccc12)c1cccc(-n2cccc2)c1 [compound 92] | > 1000 nM | > 1000 nM | > 1000 nM |
| CN(C)c1ccc(C#Cc2ccnc3[nH]ccc23)cc1 [compound 124] | > 1000 nM | > 1000 nM | > 1000 nM |
| C#Cc1ccc(C#Cc2ccnc3[nH]ccc23)cc1 [compound 95] | > 1000 nM | > 1000 nM | > 1000 nM |
| Fc1ccc(C#Cc2ccnc3[nH]ccc23)cc1 [compound 80] | > 1000 nM | > 1000 nM | > 1000 nM |
| COC(=O)c1cccc(C#Cc2ccnc3[nH]ccc23)n1 [compound 106] | > 1000 nM | > 1000 nM | > 1000 nM |
| NCc1ccccc1C#Cc1ccnc2[nH]ccc12 [compound 118] | > 1000 nM | > 1000 nM | > 1000 nM |
| COc1ccc(OC)c(C#Cc2ccnc3[nH]ccc23)c1 [compound 73] | 100 to 1000 nM | > 1000 nM | > 1000 nM |
| CC(=O)c1cccc(C#Cc2ccnc3[nH]ccc23)c1 [compound 50] | 100 to 1000 nM | > 1000 nM | 100 to 1000 nM |
| COc1ccc(NC(=O)Cc2ccccc2C#Cc2ccnc3[nH]ccc23)cc1 [compound 139] | > 1000 nM | > 1000 nM | > 1000 nM |
| COc1cccc(C#Cc2ccnc3[nH]ccc23)c1 [compound 51] | 100 to 1000 nM | > 1000 nM | 100 to 1000 nM |
| COc1ccc(C#Cc2ccnc3[nH]ccc23)cc1OC [compound 85] | > 1000 nM | > 1000 nM | > 1000 nM |
| C(#Cc1ccnc2[nH]ccc12)c1ccoc1 [compound 44] | 100 to 1000 nM | > 1000 nM | > 1000 nM |
| C(#Cc1ccnc2[nH]ccc12)c1ncccn1 [compound 93] | > 1000 nM | > 1000 nM | > 1000 nM |
| C(#Cc1ccnc2[nH]ccc12)c1cccc(N2CCOCC2)c1 [compound 47] | 100 to 1000 nM | > 1000 nM | > 1000 nM |
| COC(=O)c1ccccc1C#Cc1ccnc2[nH]ccc12 [compound 43] | 100 to 1000 nM | > 1000 nM | 100 to 1000 nM |
| C(#Cc1ccnc2[nH]ccc12)c1ccc2cc[nH]c2c1 [compound 88] | > 1000 nM | > 1000 nM | > 1000 nM |

| SMILES | IC50 [1] | IC50 [2] | IC50 [3] |
| --- | --- | --- | --- |
| N#Cc1cncc(C#Cc2ccnc3[nH]ccc23)c1 [compound 91] | > 1000 nM | > 1000 nM | > 1000 nM |
| C(#Cc1ccnc2[nH]ccc12)c1ccc(-c2cnco2)cc1 [compound 119] | > 1000 nM | > 1000 nM | > 1000 nM |
| Cc1cc(C)cc(C#Cc2ccnc3[nH]ccc23)c1 [compound 77] | > 1000 nM | > 1000 nM | > 1000 nM |
| CC(=O)Nc1ccc(C#Cc2ccnc3[nH]ccc23)cc1 [compound 67] | 100 to 1000 nM | > 1000 nM | > 1000 nM |
| C(#Cc1ncnc2sc3c(c12)CCCC3)c1ccccc1 [compound 97] | > 1000 nM | > 1000 nM | > 1000 nM |
| FC(F)(F)c1cccc(C#Cc2ccnc3[nH]ccc23)c1 [compound 116] | > 1000 nM | > 1000 nM | > 1000 nM |
| COC(=O)c1cccc(C#Cc2ccnc3[nH]ccc23)c1 [compound 55] | 100 to 1000 nM | > 1000 nM | > 1000 nM |
| FC(F)(F)Oc1cccc(C#Cc2ccnc3[nH]ccc23)c1 [compound 123] | > 1000 nM | > 1000 nM | > 1000 nM |
| Cc1nc(-c2ccc(C#Cc3ccnc4[nH]ccc34)cc2)no1 [compound 114] | > 1000 nM | > 1000 nM | > 1000 nM |
| Cc1ccnc(C#Cc2ccnc3[nH]ccc23)c1 [compound 68] | 100 to 1000 nM | > 1000 nM | > 1000 nM |
| Nc1cccc(C#Cc2cnc3[nH]ccc3c2)c1 [compound 71] | 100 to 1000 nM | > 1000 nM | > 1000 nM |
| CCc1ccccc1C#Cc1ccnc2[nH]ccc12 [compound 64] | 100 to 1000 nM | > 1000 nM | > 1000 nM |
| C(#Cc1ccnc2[nH]ccc12)c1ccc(-c2nnc(-c3ccccc3)o2)cc1 [compound 131] | > 1000 nM | > 1000 nM | > 1000 nM |
| COC(=O)c1ccc(C#Cc2ccnc3[nH]ccc23)cc1 [compound 130] | > 1000 nM | > 1000 nM | > 1000 nM |
| Cc1cccc(C#Cc2ccnc3[nH]ccc23)c1 [compound 62] | 100 to 1000 nM | > 1000 nM | > 1000 nM |
| Nc1ccccc1C#Cc1cnc2[nH]ccc2c1 [compound 137] | > 1000 nM | > 1000 nM | > 1000 nM |
| C(#Cc1ccnc2[nH]ccc12)c1ccc(N2CCOCC2)cc1 [compound 128] | > 1000 nM | > 1000 nM | > 1000 nM |
| FC(F)(F)Oc1ccc(C#Cc2ccnc3[nH]ccc23)cc1 [compound 120] | > 1000 nM | > 1000 nM | > 1000 nM |
| C(#Cc1ccnc2[nH]ccc12)c1cccc(-c2ccccc2)c1 [compound 98] | > 1000 nM | > 1000 nM | > 1000 nM |
| FC(F)(F)c1ccccc1C#Cc1ccnc2[nH]ccc12 [compound 48] | 100 to 1000 nM | > 1000 nM | > 1000 nM |
| C[Si](C)(C)C#Cc1ncnc2sc3c(c12)CCCC3 [compound 112] | > 1000 nM | > 1000 nM | > 1000 nM |
| C#Cc1ncnc2[nH]ccc12 [compound 111] | > 1000 nM | > 1000 nM | > 1000 nM |
